Calls of active or inactive are those of the source.
Experiments:
Type in all cases: functional, organism-based
Chlorella sorokiniana = experiment: Antialgal activity against Chlorella sorokiniana by agar diffusion test
Chlorella salina = experiment: Antialgal activity against Chlorella salina by agar diffusion test
Rhizomucor miehei = experiment: Antifungal activity against Mucor miehei by agar diffusion test
Bacillus subtilis = experiment: Antibacterial activity against Bacillus subtilis up to 100 ug/mL by agar diffusion test
Chlorella vulgaris = experiment: Antialgal activity against Chlorella vulgaris up to 100 ug/mL by agar diffusion test
Staphylococcus aureus = experiment: Antibacterial activity against Staphylococcus aureus by agar diffusion test
Escherichia coli = experiment: Antibacterial activity against Escherichia coli up to 100 ug/mL by agar diffusion test

Measured: Activity

Cc1ccc2c(c1)/C(=N\N=C1/CC(C)(C)Oc3ccc(C)cc31)CC(C)(C)O2
inactive: all assays above
